Measurements from US20260184707A1, “PHARMACEUTICAL COMPOUNDS FOR THE TREATMENT OF COMPLEMENT MEDIATED DISORDERS” (ALEXION PHARMACEUTICALS, INC., priority 2022, published 2026).

Target: T1, Human complement C1s enzyme (Homo sapiens, UniProt P09871)
T1 construct: purified from human serum, Complement Technology, Inc; purchased Complement Technology, Inc; host or cells: human serum (plasma-derived native protein)
T1 sequence (P09871 438-688 limits assumed): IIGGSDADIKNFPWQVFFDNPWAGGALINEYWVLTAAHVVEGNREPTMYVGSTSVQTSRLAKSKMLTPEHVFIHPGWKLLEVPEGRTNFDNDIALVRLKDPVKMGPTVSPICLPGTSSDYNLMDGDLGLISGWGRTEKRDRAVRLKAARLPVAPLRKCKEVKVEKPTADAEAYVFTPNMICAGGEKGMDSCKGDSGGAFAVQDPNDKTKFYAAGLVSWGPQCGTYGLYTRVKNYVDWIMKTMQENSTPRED
T1 sequence (P09871 16-437 partner limits assumed): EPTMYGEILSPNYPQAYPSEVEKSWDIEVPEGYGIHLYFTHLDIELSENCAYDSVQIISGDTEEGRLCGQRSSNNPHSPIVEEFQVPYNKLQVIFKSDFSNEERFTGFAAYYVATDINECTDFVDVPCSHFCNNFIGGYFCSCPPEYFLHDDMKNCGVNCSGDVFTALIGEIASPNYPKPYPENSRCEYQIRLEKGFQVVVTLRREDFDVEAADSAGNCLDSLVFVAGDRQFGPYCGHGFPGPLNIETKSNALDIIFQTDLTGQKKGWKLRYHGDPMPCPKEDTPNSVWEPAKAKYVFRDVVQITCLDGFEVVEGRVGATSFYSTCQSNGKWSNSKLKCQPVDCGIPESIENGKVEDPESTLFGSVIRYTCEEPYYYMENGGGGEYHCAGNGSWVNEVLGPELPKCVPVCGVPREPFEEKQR
Assay: Human C1s enzyme assay
Format: biochemical
Details: human complement C1s enzyme 1.16 nM, substrate Z-L-Lys-SBzl, A405; read-out: IC50 (Stars)
Method in brief: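 Thioesterase activity followed colorimetrically (DTNB, A405, 30-s reads) using 100 μM Z-L-Lys-SBzl substrate. Enzyme, human serum-derived C1s at 1.16 nM final, was incubated with test compound for 5 min, room temperature, pH 7.5 Tris buffer with 1 M NaCl. Rate-versus-concentration data fitted by nonlinear regression for IC50.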

O=C(Cn1c(-c2ccccc2)ncc(NC(=O)c2cnc(-c3ccccc3)s2)c1=O)NCc1cc2cnccc2[nH]1 [Compound 106, N-(1-(2-(((1H-pyrrolo[3,2-c]pyridin-2-yl)methyl)amino)-2-oxoethyl)-6-oxo-2-phenyl-1,6-dihydropyrimidin-5-yl)-2-phenylthiazole-5-carboxamide]
IC50: < 100 nM

O=C(Cn1c(-c2ccccc2)ncc(NC(=O)c2cnc(-c3ccccc3)o2)c1=O)NCc1cc2cnccc2[nH]1 [Compound 107, N-(1-(2-(((1H-pyrrolo[3,2-c]pyridin-2-yl)methyl)amino)-2-oxoethyl)-6-oxo-2-phenyl-1,6-dihydropyrimidin-5-yl)-2-phenyloxazole-5-carboxamide]
IC50: < 100 nM

O=C(Cn1c(-c2ccccc2)ncc(NC(=O)c2ccc(-c3ncco3)cc2)c1=O)NCc1cc2cnccc2[nH]1 [Compound 108, N-(1-(2-(((1H-pyrrolo[3,2-c]pyridin-2-yl)methyl)amino)-2-oxoethyl)-6-oxo-2-phenyl-1,6-dihydropyrimidin-5-yl)-4-(oxazol-2-yl)benzamide]
IC50: < 100 nM

COc1ccc(-c2cc(C(=O)Nc3cnc(-c4ccccc4)n(CC(=O)NCc4cc5cnccc5[nH]4)c3=O)on2)cc1 [Compound 109, N-(1-(2-(((1H-pyrrolo[3,2-c]pyridin-2-yl)methyl)amino)-2-oxoethyl)-6-oxo-2-phenyl-1,6-dihydropyrimidin-5-yl)-3-(4-methoxyphenyl)isoxazole-5-carboxamide]
IC50: < 100 nM

O=C(Cn1c(-c2ccccc2)ncc(NC(=O)c2ccc(-c3ccccc3)s2)c1=O)NCc1cc2cnccc2[nH]1 [Compound 110, N-(1-(2-(((1H-pyrrolo[3,2-c]pyridin-2-yl)methyl)amino)-2-oxoethyl)-6-oxo-2-phenyl-1,6-dihydropyrimidin-5-yl)-5-phenylthiophene-2-carbox-amide]
IC50: < 100 nM

O=C(Cn1c(-c2ccccc2)ncc(NC(=O)c2coc(-c3ccccc3)n2)c1=O)NCc1cc2cnccc2[nH]1 [Compound 111, N-(1-(2-(((1H-pyrrolo[3,2-c]pyridin-2-yl)methyl)amino)-2-oxoethyl)-6-oxo-2-phenyl-1,6-dihydropyrimidin-5-yl)-2-phenyloxazole-4-carboxamide]
IC50: < 100 nM

O=C(Cn1c(-c2ccccc2)ncc(NCc2ccc3c(c2)C(F)(F)c2ccccc2-3)c1=O)NCc1cc2cnccc2[nH]1 [Compound 112, N-((1H-pyrrolo[3,2-c]pyridin-2-yl)methyl)-2-(5-(((9,9-difluoro-9H-fluoren-2-yl)meth-yl)amino)-6-oxo-2-phenyl-pyrimidin-1(6H)-yl)acetamide]
IC50: < 100 nM

O=C(Cn1c(-c2ccccc2)ncc(NCCCc2cc3ccc2CCc2ccc(cc2)CC3)c1=O)NCc1cc2cnccc2[nH]1 [Compound 113, 2-(5-((3-(1,4(1,4)-dibenzenacyclohexaphane-1^2-yl)propyl)amino)-6-oxo-2-phenylpyrimidin-1(6H)-yl)-N-((1H-pyrrolo[3,2-c]pyridine-2-yl)methyl)acetamide]
IC50: < 100 nM

CS(=O)(=NC#N)c1ccc(-c2ncc(NCCCc3ccccc3)c(=O)n2CC(=O)NCc2cc3cnccc3[nH]2)cc1 (centres unmarked) [Compound 114, N-((1H-pyrrolo[3,2-c]pyridine-2-yl)methyl)-2-(2-(4-(N-cyano-S-methylsulfonimidoyl)phenyl)-6-oxo-5-((3-phenylpropyl)amino)pyrimidin-1(6H)-yl)acetamide]
IC50: < 100 nM

COc1cc(C(=O)Nc2cnc(-c3ccccc3)n(CC(=O)NCc3cc4cnccc4[nH]3)c2=O)ccc1-c1ccccc1 [Compound 115, N-(1-(2-(((1H-pyrrolo[3,2-c]pyridin-2-yl)methyl)amino)-2-oxoethyl)-6-oxo-2-phenyl-1,6-dihydropyrimidin-5-yl)-2-methoxy-[1,1′-biphenyl]-4-carboxamide]
IC50: < 100 nM

O=C(Cn1c(-c2ccccc2)ncc(NCCCc2ccc(C3(F)COC3)cc2)c1=O)NCc1cc2cnccc2[nH]1 [Compound 116, N-((1H-pyrrolo[3,2-c]pyridine-2-yl)methyl)-2-(5-((3-(4-(3-fluorooxetan-3-yl)phenyl)propyl)amino)-6-oxo-2-phenylpyrimidin-1(6H)-yl)acetamide]
IC50: < 100 nM

O=C(Cn1c(-c2cccc(F)c2)ncc(NCc2ccc3oc4ccccc4c3c2)c1=O)NCc1cc2cnccc2[nH]1 [Compound 117, N-((1H-pyrrolo[3,2-c]pyridin-2-yl)methyl)-2-(5-((dibenzo [b,d]furan-2-ylmethyl)amino)-2-(3-fluorophenyl)-6-oxopyr-imidin-1(6H)-yl)acetamide]
IC50: < 100 nM

O=C(Cn1c(-c2ccc(Cl)cc2)ncc(NCc2ccc3oc4ccccc4c3c2)c1=O)NCc1cc2cnccc2[nH]1 [Compound 118, N-((1H-pyrrolo[3,2-c]pyridin-2-yl)methyl)-2-(2-(4-chloro-phenyl)-5-((dibenzo[b,d]furan-2-ylmethyl)amino)-6-oxopyr-imidin-1(6H)-yl)acetamide]
IC50: < 100 nM

COc1ccc(-c2ncc(NCc3ccc4oc5ccccc5c4c3)c(=O)n2CC(=O)NCc2cc3cnccc3[nH]2)cc1 [Compound 119, N-((1H-pyrrolo[3,2-c]pyridin-2-yl)methyl)-2-(5-((dibenzo [b,d]furan-2-ylmethyl)amino)-2-(4-methoxyphenyl)-6-oxo-pyrimidin-1(6H)-yl)acetamide]
IC50: < 100 nM

O=C(Cn1c(-c2ccccc2F)ncc(NCc2ccc3oc4ccccc4c3c2)c1=O)NCc1cc2cnccc2[nH]1 [Compound 120, N-((1H-pyrrolo[3,2-c]pyridin-2-yl)methyl)-2-(5-((dibenzo [b,d]furan-2-ylmethyl)amino)-2-(2-fluorophenyl)-6-oxopyr-imidin-1(6H)-yl)acetamide]
IC50: < 100 nM

O=C(Cn1c(-c2ccc(F)cc2)ncc(NCc2ccc3oc4ccccc4c3c2)c1=O)NCc1cc2cnccc2[nH]1 [Compound 123, N-((1H-pyrrolo[3,2-c]pyridine-2-yl)methyl)-2-(5-((dibenzo[b,d]furan-2-ylmethyl)amino)-2-(4-fluorophenyl)-6-oxopyrimidin-1(6H)-yl)acetamide]
IC50: < 100 nM

O=C(Cn1c(-c2ccc(OC3CS(=O)(=O)C3)cc2)ncc(NCCCc2ccccc2)c1=O)NCc1cc2cnccc2[nH]1 [Compound 124, N-((1H-pyrrolo[3,2-c]pyridine-2-yl)methyl)-2-(2-(4-((1,1-dioxidothietan-3-yl)oxy)phenyl)-6-oxo-5-((3-phenylpropyl)amino)pyrimidin-1(6H)-yl)acetamide]
IC50: < 100 nM

O=C(Cn1c(-c2ccc(O[C@@H]3CO[C@H]4[C@@H]3OC[C@H]4O)cc2)ncc(NCCCc2ccccc2)c1=O)NCc1cc2cnccc2[nH]1 [Compound 125, N-((1H-pyrrolo[3,2-c]pyridine-2-yl)methyl)-2-(2-(4-(((3R,3aR,6R,6aR)-6-hydroxyhexahydrofuro[3,2-b]furan-3-yl)oxy)phenyl)-6-oxo-5-((3-phenylpropyl)amino)pyrimidin-1(6H)-yl)acetamide]
IC50: < 100 nM

C[C@@H](Nc1cnc(-c2ccccc2)n(CC(=O)NCc2cc3cnccc3[nH]2)c1=O)c1ccc2oc3ccccc3c2c1 [Compound 126, (R)-N-((1H-pyrrolo[3,2-c]pyr-idin-2-yl)methyl)-2-(5-((1-(dibenzo[b,d]furan-2-yl)ethyl)-amino)-6-oxo-2-phenylpyrimi-din-1(6H)-yl)acetamide]
IC50: < 100 nM

C[C@H](Nc1cnc(-c2ccccc2)n(CC(=O)NCc2cc3cnccc3[nH]2)c1=O)c1ccc2oc3ccccc3c2c1 [Compound 127, (S)—N-((1H-pyrrolo[3,2-c]pyridine-2-yl)methyl)-2-(5-((1-(dibenzo[b,d]furan-2-yl)ethyl)amino)-6-oxo-2-phenylpyrimidin-1(6H)-yl)acetamide]
IC50: < 100 nM

COc1c(NC(=O)c2ccc(-c3ccccc3)s2)ccc(-c2ccccc2)c1CC(=O)NCc1cc2cnccc2[nH]1 [Compound 129, N-(2-(2-(((1H-Pyrrolo[3,2-c]pyridine-2-yl)methyl)amino)-2-oxoethyl)-3-methoxy-[1,1′-biphenyl]-4-yl)-5-phenylthiophene-2-carboxamide]
IC50: > 1000 nM

O=C(Cn1c(-c2ccc(OC3COC3)cc2)ncc(NCc2ccc3oc4ccccc4c3c2)c1=O)NCc1cc2cnccc2[nH]1 [Compound 130, N-((1H-pyrrolo[3,2-c]pyridine-2-yl)methyl)-2-(5-((dibenzo[b,d]furan-2-ylmethyl)amino)-2-(4-(oxetan-3-yloxy)phenyl)-6-oxopyrimidin-1(6H)-yl)acetamide]
IC50: < 100 nM

CS(=O)(=O)c1ccc(-c2ncc(NCc3ccc4oc5ccccc5c4c3)c(=O)n2CC(=O)NCc2cc3cnccc3[nH]2)cc1 [Compound 134, N-((1H-pyrrolo[3,2-c]pyridin-2-yl)methyl)-2-(5-((dibenzo [b,d]furan-2-ylmethyl)amino)-2-(4-(methylsulfonyl)phenyl)-6-oxopyrimidin-1(6H)-yl)-acetamide]
IC50: < 100 nM
